In ChEMBL document CHEMBL1201862, “PubChem BioAssay data set” (2004):
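Values below derive from 48-hour exposures of cells grown in 96-well plates, with endpoints linearly interpolated between the two concentrations bracketing the appropriate inhibition level. GI50 = concentration required for 50% inhibition of growth.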 Calls of active or inactive are those of the source. Rule as the data show it: active = GI50 up to about 1.1 µM and inactive = higher.

What was measured:
Test in all cases: growth of human tumour cells (NCI), 48 h
U-251 = test system: U-251
SF-268 = test system: SF-268
OVCAR-3 = test system: OVCAR-3
SK-MEL-28 = test system: SK-MEL-28
ACHN = test system: ACHN
RXF 393 = test system: RXF 393
SF-539 = test system: SF-539
HOP-92 = test system: HOP-92
CAKI-1 = test system: CAKI-1
NCI-H460 = test system: NCI-H460
HCT-116 = test system: HCT-116
RPMI-8226 = test system: RPMI-8226
OVCAR-4 = test system: OVCAR-4
UACC-62 = test system: UACC-62
HOP-62 = test system: HOP-62
IGROV-1 = test system: IGROV-1
MDA-MB-435 = test system: MDA-MB-435
MCF7 = test system: MCF7
PC-3 = test system: PC-3
MDA-MB-231 = test system: MDA-MB-231

SMILES | GI50 (U-251) | GI50 (SF-268) | GI50 (OVCAR-3) | GI50 (SK-MEL-28) | GI50 (ACHN) | GI50 (RXF 393) | GI50 (SF-539) | GI50 (HOP-92) | GI50 (CAKI-1) | GI50 (NCI-H460) | GI50 (HCT-116) | GI50 (RPMI-8226) | GI50 (OVCAR-4) | GI50 (UACC-62) | GI50 (HOP-62) | GI50 (IGROV-1) | GI50 (MDA-MB-435) | GI50 (MCF7) | GI50 (PC-3) | GI50 (MDA-MB-231)
CSCSCC(CO)NC(=O)/C=C/c1c(C)nc(O)nc1O (configuration not stated) | 64.3 µM (inactive) | 30.8 µM (inactive) | 26.4 µM (inactive) | > 100 µM (inactive) | > 100 µM (inactive) | > 100 µM (inactive) | > 100 µM (inactive) | > 100 µM (inactive) | 56.6 µM (inactive) | > 100 µM (inactive) | > 100 µM (inactive) | > 100 µM (inactive) | 37 µM (inactive) | > 100 µM (inactive) | – | – | – | – | – | –
Cc1ccc(C)c(N2C(=O)C(=O)C(c3nc4ccccc4o3)/C(=N/N)C2=O)c1 (configuration not stated) | > 100 µM (inactive) | > 100 µM (inactive) | > 100 µM (inactive) | > 100 µM (inactive) | > 100 µM (inactive) | > 100 µM (inactive) | > 100 µM (inactive) | > 100 µM (inactive) | > 100 µM (inactive) | > 100 µM (inactive) | > 100 µM (inactive) | – | > 100 µM (inactive) | > 100 µM (inactive) | > 100 µM (inactive) | > 100 µM (inactive) | – | – | – | –
C/C=C(/I)CBr | > 10 µM (inactive) | 23.6 µM (inactive) | – | 21 µM (inactive) | 21.8 µM (inactive) | 17.3 µM (inactive) | 17 µM (inactive) | 15.3 µM (inactive) | 1.07 µM (active) | 18.9 µM (inactive) | 13.9 µM (inactive) | 10.4 µM (inactive) | 17.3 µM (inactive) | 15.5 µM (inactive) | 22.5 µM (inactive) | 16 µM (inactive) | – | – | – | –
Cc1n[nH]c(=O)n1/N=C/c1ccc(F)cc1 | – | > 100 µM (inactive) | > 100 µM (inactive) | > 100 µM (inactive) | > 100 µM (inactive) | 40.6 µM (inactive) | > 100 µM (inactive) | > 100 µM (inactive) | > 100 µM (inactive) | > 100 µM (inactive) | > 100 µM (inactive) | > 100 µM (inactive) | > 100 µM (inactive) | > 100 µM (inactive) | > 100 µM (inactive) | – | > 100 µM (inactive) | – | – | –
CCOC(=O)C1=c2[nH]c3cccc4cccc(c43)n2C=C(C(C)=O)C1CC(C)=O (configuration not stated) | > 100 µM (inactive) | – | > 100 µM (inactive) | > 100 µM (inactive) | 80 µM (inactive) | 56.1 µM (inactive) | – | 36.6 µM (inactive) | 56.6 µM (inactive) | > 100 µM (inactive) | 34.4 µM (inactive) | > 100 µM (inactive) | > 100 µM (inactive) | > 100 µM (inactive) | 68.7 µM (inactive) | > 100 µM (inactive) | 52.6 µM (inactive) | 94.2 µM (inactive) | > 100 µM (inactive) | –
COc1ccc(C(=O)C(c2ccc(OC)cc2)C2(O)C(=O)Nc3c(Cl)cc(Cl)cc32)cc1 (configuration not stated) | 33.1 µM (inactive) | 33.8 µM (inactive) | 22.8 µM (inactive) | 22.3 µM (inactive) | 22.8 µM (inactive) | 22.3 µM (inactive) | – | 15.3 µM (inactive) | 19.1 µM (inactive) | 20.7 µM (inactive) | – | 11.9 µM (inactive) | 6.34 µM (inactive) | – | 23.8 µM (inactive) | – | – | – | – | –
O=C(c1ccc(Cl)cc1)c1ccc(OCC(=O)N2CCN(c3ccccc3)CC2)cc1 | > 100 µM (inactive) | > 100 µM (inactive) | > 100 µM (inactive) | > 100 µM (inactive) | > 100 µM (inactive) | > 100 µM (inactive) | > 100 µM (inactive) | > 100 µM (inactive) | > 100 µM (inactive) | > 100 µM (inactive) | > 100 µM (inactive) | > 100 µM (inactive) | > 100 µM (inactive) | > 100 µM (inactive) | > 100 µM (inactive) | > 100 µM (inactive) | – | – | – | –
O=C1C=C(c2c(O)ccc3ccccc23)c2cc(O)ccc2C1=O | 14.8 µM (inactive) | 16.3 µM (inactive) | 10.7 µM (inactive) | 20.7 µM (inactive) | 17.4 µM (inactive) | 14.6 µM (inactive) | 16.2 µM (inactive) | 16.1 µM (inactive) | 19.5 µM (inactive) | 20.3 µM (inactive) | 16 µM (inactive) | 4.47 µM (inactive) | 11.1 µM (inactive) | 4.43 µM (inactive) | 20 µM (inactive) | 13.7 µM (inactive) | – | – | – | –
COc1ccc(/C=C/C(=O)c2c(-c3ccccc3)nn(C)c(=O)c2N2CC2C)cc1 (configuration not stated) | 27.9 µM (inactive) | 26.8 µM (inactive) | 24.3 µM (inactive) | 52.6 µM (inactive) | 36.2 µM (inactive) | 27.9 µM (inactive) | 39.1 µM (inactive) | 29 µM (inactive) | 44.5 µM (inactive) | 27.5 µM (inactive) | 36.1 µM (inactive) | – | 27.9 µM (inactive) | 19 µM (inactive) | 35.6 µM (inactive) | 59.3 µM (inactive) | – | – | – | –
O=C1OC(CC(=O)c2ccccc2Cl)C(Cl)=C1Cl (configuration not stated) | > 100 µM (inactive) | > 100 µM (inactive) | > 100 µM (inactive) | > 100 µM (inactive) | > 100 µM (inactive) | > 100 µM (inactive) | > 100 µM (inactive) | > 100 µM (inactive) | > 100 µM (inactive) | > 100 µM (inactive) | > 100 µM (inactive) | > 100 µM (inactive) | > 100 µM (inactive) | > 100 µM (inactive) | > 100 µM (inactive) | > 100 µM (inactive) | – | – | – | –
COC1OC(C)C(OC(=O)C(C)(C)C)C(C)(O)C1O (configuration not stated) | > 100 µM (inactive) | > 100 µM (inactive) | > 100 µM (inactive) | > 100 µM (inactive) | – | > 100 µM (inactive) | > 100 µM (inactive) | > 100 µM (inactive) | > 100 µM (inactive) | > 100 µM (inactive) | > 100 µM (inactive) | > 100 µM (inactive) | > 100 µM (inactive) | > 100 µM (inactive) | > 100 µM (inactive) | > 100 µM (inactive) | – | – | – | –
N#Cc1c(-c2cccc(Br)c2)cc(-c2ccc(Cl)cc2)nc1N | 16.4 µM (inactive) | 24.8 µM (inactive) | 25.4 µM (inactive) | – | 21.8 µM (inactive) | 15.8 µM (inactive) | 18.1 µM (inactive) | 11.2 µM (inactive) | 25.6 µM (inactive) | 21.2 µM (inactive) | 16.1 µM (inactive) | 17 µM (inactive) | 0.514 µM (active) | 15.3 µM (inactive) | 23.5 µM (inactive) | 14 µM (inactive) | 18.2 µM (inactive) | 26.2 µM (inactive) | 22.2 µM (inactive) | –
CCCCCCCC(=O)NCC(O)CNC(=O)CCCCCCC | > 100 µM (inactive) | > 100 µM (inactive) | > 100 µM (inactive) | – | – | > 100 µM (inactive) | > 100 µM (inactive) | > 100 µM (inactive) | > 100 µM (inactive) | > 100 µM (inactive) | > 100 µM (inactive) | > 100 µM (inactive) | > 100 µM (inactive) | > 100 µM (inactive) | > 100 µM (inactive) | > 100 µM (inactive) | – | – | – | –
CN(/N=C/c1ccc(C(=O)O)cc1)C1=NCCCCN1 | > 100 µM (inactive) | > 100 µM (inactive) | > 100 µM (inactive) | > 100 µM (inactive) | > 100 µM (inactive) | – | > 100 µM (inactive) | – | > 100 µM (inactive) | > 100 µM (inactive) | > 100 µM (inactive) | > 100 µM (inactive) | > 100 µM (inactive) | > 100 µM (inactive) | > 100 µM (inactive) | > 100 µM (inactive) | > 100 µM (inactive) | > 100 µM (inactive) | > 100 µM (inactive) | > 100 µM (inactive)
Fc1ccc(Oc2nc3ccc(C(F)(F)F)cc3nc2-c2ccccc2)cc1 | – | > 100 µM (inactive) | > 100 µM (inactive) | – | 44.8 µM (inactive) | 67.5 µM (inactive) | 30.8 µM (inactive) | – | 27.9 µM (inactive) | 66.2 µM (inactive) | 85.1 µM (inactive) | – | 60.5 µM (inactive) | 39.8 µM (inactive) | 24.4 µM (inactive) | > 100 µM (inactive) | 76.2 µM (inactive) | 28.8 µM (inactive) | > 100 µM (inactive) | > 100 µM (inactive)
O=P(c1ccccc1)(c1ccccc1)c1ccc2c(c1)OCCOCCOCCOCCO2 | – | > 100 µM (inactive) | – | > 100 µM (inactive) | > 100 µM (inactive) | – | > 100 µM (inactive) | – | > 100 µM (inactive) | > 100 µM (inactive) | > 100 µM (inactive) | > 100 µM (inactive) | – | > 100 µM (inactive) | > 100 µM (inactive) | > 100 µM (inactive) | > 100 µM (inactive) | > 100 µM (inactive) | > 100 µM (inactive) | > 100 µM (inactive)
COc1ccc(NS(=O)(=O)c2ccc(/N=C3\C=C(Nc4ccc(S(=O)(=O)Nc5ccc(OC)nn5)cc4)C(=O)c4ccccc43)cc2)nn1 | 18 µM (inactive) | 21.4 µM (inactive) | 21 µM (inactive) | 17.5 µM (inactive) | 19.1 µM (inactive) | 18.4 µM (inactive) | 17.7 µM (inactive) | 31 µM (inactive) | 22 µM (inactive) | 17.7 µM (inactive) | 17.5 µM (inactive) | 53.7 µM (inactive) | 18.3 µM (inactive) | 18.6 µM (inactive) | – | 23.9 µM (inactive) | – | – | – | –
CN1N=C2c3ccccc3OC(c3ccccc3)[C@H]2C1c1ccccc1 (some centres not stated) | > 100 µM (inactive) | > 100 µM (inactive) | > 100 µM (inactive) | > 100 µM (inactive) | > 100 µM (inactive) | 28.2 µM (inactive) | > 100 µM (inactive) | 32.7 µM (inactive) | – | 97.1 µM (inactive) | 29.7 µM (inactive) | 89.7 µM (inactive) | 85.1 µM (inactive) | > 100 µM (inactive) | 95.5 µM (inactive) | 90.8 µM (inactive) | – | – | – | –
